Measurements published in paper PMC7433010, “Exploration of multi‐target effects of 3‐benzoyl‐5‐hydroxychromen‐2‐one in Alzheimer’s disease cell and mouse models” (Aging Cell, 2020).

How the values were obtained:
BCL2 = test: Western blot of BCL2 in ∆K280 TauRD‐DsRed SH‐SY5Y cells; type: cell-based, human; conditions: 1 µM; induced untreated 83%, uninduced 100%
Description: (§1) Total proteins from ∆K280 TauRD-DsRed SH-SY5Y cells were obtained using a RIPA buffer containing 50 mM Tris-HCl (pH8.0), 150 mM NaCl, 2 mM EDTA (pH8.0), 50 mM NaF, 0.1% SDS, 0.5% sodium deoxycholate, 1% NP40, and a protease inhibitor cocktail (Sigma-Aldrich). After sonication and sitting on ice for 20 min, the lysates were centrifuged at 14,000 × g for 30 min at 4°C. Protein concentrations were determined using a protein assay kit (Bio-Rad, Hercules, CA, USA), with albumin as a standard. Total proteins (20 µg) were electrophoresed on 10% or 12% SDS-polyacrylamide gel and transferred onto polyvinylidene difluoride (PVDF) membranes (Sigma-Aldrich) through reverse electrophoresis. […] Subsequently, immune complexes were detected using a horseradish peroxidase-conjugated goat anti-mouse or goat anti-rabbit IgG antibody (1:5000; GeneTex, Irvive, CA, USA) and a chemiluminescent substrate (Millipore).

pCREB (S133) = test: Western blot of pCREB (S133) in ∆K280 TauRD‐DsRed SH‐SY5Y cells; type: cell-based, human; conditions: 1 µM; induced untreated 78%, uninduced 100%
Description: To knock down CREB expression in ∆K280 TauRD-DsRed SH-SY5Y cells, lentiviral short hairpin RNA (shRNA) targeting CREB (TRCN0000226466), NRF2 (TRCN0000007558), and a negative control scrambled (TRC2.Void) were obtained from National RNAi Core Facility, IMB/GRC, Academia Sinica, Taipei, Taiwan. On day 1, cells were plated on 6-well plates (for protein analysis) or 24-well plates (for neurite outgrowth analysis) in the presence of retinoic acid as described. On the second day, the cells were infected with lentivirus (multiplicity of infection: 3) in medium with polybrene (8 µg/mL; Sigma-Aldrich). […] On day 9, the cells were collected for NRF2, CREB, pCREB, and cleaved CASP3 protein analysis or analyzed for neurite outgrowth as described.
as §1, with “After sonication and sitting on ice for 20 min, the lysates were centrifuged at 14,000 × g for 30 min at 4°C.” left out, “standard.” for “standard. Total proteins (20 µg) were electrophoresed on 10% or 12% SDS-polyacrylamide gel and transferred onto polyvinylidene difluoride (PVDF) membranes (Sigma-Aldrich) through reverse electrophoresis.”

sarkosyl‐insoluble Tau = test: TEM of sarkosyl‐insoluble Tau from STZ‐treated 3 × Tg‐AD mice; type: in vivo, mouse; conditions: STZ/LM‐031 mice
Text: Figure S7. Body weight, blood glucose, open field task, NeuN immunoreactivity, and TEM of sarkosyl-insoluble tau in STZ-treated 3×Tg-AD mice. (a) Body weight and blood glucose of the mice. […] (c) Representative IHC images for NeuN and intensity quantification in the hippocampus of mice. DG, dentate gyrus; CA1 and CA3, Cornu Ammonis areas 1 and 3. (d) TEM of sarkosyl-insoluble tau. p values, STZ vs. – STZ mice or STZ/LM-031 vs. STZ mice. *: p < 0.05, ^##: p < 0.01, ^##^#: p < 0.001. (one-way ANOVA with a post hoc Tukey test)

[1] = Body weight in STZ‐treated 3 × Tg‐AD mice; type: in vivo, mouse; conditions: 40 mg/kg i.p.; among the three groups
Description: For the in vivo LM‐031 treatment experiments, 6‐month‐old male homozygous 3 × Tg‐AD mice (n = 10 per group) were used. Mice were randomly divided into three groups: – streptozocin (STZ), STZ, and STZ/LM‐031. STZ‐induced hyperglycemia was used to accelerate the development of AD phenotype. Mouse body weight and blood glucose level were measured on days 1, 8, 15, 22, and 29. LM‐031 (40 mg/kg) or vehicle (DMSO:Cremophor EL:0.9% saline = 1:2:7) was intraperitoneally injected every day for 22 days from days 15 to 36. All animal procedures were ethically approved by the Institutional Animal Care and Use Committee of National Taiwan Normal University, Taipei, Taiwan (Permit Number: 103002) and were conducted in compliance with the ARRIVE (Animal Research: Reporting In Vivo Experiments) guidelines. Open‐field task, Y‐maze task, Morris water maze task, and immunohistochemistry and image analysis were performed.
Mice harboring APPSwe, PS1M146V, and […] transgenes (3×Tg-AD) (Oddo et al., 2003) were purchased from the Jackson Laboratory (004807; Bar Harbor, ME, USA). […] Mouse body weight was measured and blood glucose level was measured on days 1, 8, 15, 22, and 29 using a blood glucose meter (Bioland Technology, Taipei, Taiwan). […]

sarkosyl‐insoluble Tau aggregates by TEM (sarkosyl‐insoluble Tau): reduced Tau aggregates
SMILES: O=C(c1ccccc1)c1cc2c(O)cccc2oc1=O [LM‐031, 3‐benzoyl‐5‐hydroxychromen‐2‐one]
BCL2 protein level (BCL2): 106%
pCREB (S133) protein level (pCREB (S133)): 124%
body weight [1]: No significant change
